In ChEMBL document CHEMBL1921675, “Synthesis and cytotoxic evaluation of novel paraconic acid analogs” (Bioorg Med Chem Lett, 2011):

Tests used:
KB [1] = test: Antiproliferative activity against human KB cells assessed as cellular growth inhibition at 10 uM after 72 hrs by MTS assay; assay type: functional; conditions: read-out: GI
HCT-116 [2] = test: Antiproliferative activity against human HCT116 cells assessed as cellular growth inhibition at 10 uM after 72 hrs by MTS assay; assay type: functional; conditions: HCT-116, 72 h, read-out: GI
MCF7 [3] = test: Antiproliferative activity against human MCF7 cells assessed as cellular growth inhibition at 10 uM after 72 hrs by MTS assay; assay type: functional; conditions: MCF7, 72 h, read-out: GI
HL-60 [4] = test: Antiproliferative activity against human HL60 cells assessed as cellular growth inhibition at 10 uM after 72 hrs by MTS assay; assay type: functional; conditions: HL-60, 72 h, read-out: GI
KB [5] = test: Antiproliferative activity against human KB cells after 72 hrs by MTS assay; assay type: functional, cell-based
HCT-116 [6] = test: Antiproliferative activity against human HCT116 cells after 72 hrs by MTS assay; assay type: functional, cell-based; conditions: HCT-116, 72 h
MCF7 [7] = test: Antiproliferative activity against human MCF7 cells after 72 hrs by MTS assay; assay type: functional, cell-based; conditions: MCF7, 72 h
HL-60 [8] = test: Antiproliferative activity against human HL60 cells after 72 hrs by MTS assay; assay type: functional, cell-based; conditions: HL-60, 72 h
PC-3 = test: Antiproliferative activity against human PC3 cells assessed as cellular growth inhibition at 10 uM after 72 hrs by MTS assay; assay type: functional; conditions: PC-3, 72 h, read-out: GI
SK-OV-3 = test: Antiproliferative activity against human SKOV3 cells assessed as cellular growth inhibition at 10 uM after 72 hrs by MTS assay; assay type: functional; conditions: SK-OV-3, 72 h, read-out: GI
[9] = Antiproliferative activity against human MCF7/R cells assessed as cellular growth inhibition at 10 uM after 72 hrs by MTS assay; assay type: functional; conditions: MCF7R, read-out: GI
[10] = Antiproliferative activity against human HL60R cells assessed as cellular growth inhibition at 10 uM after 72 hrs by MTS assay; assay type: functional; conditions: read-out: GI

IC50 (KB [5])	IC50 (HCT-116 [6])	IC50 (MCF7 [7])	IC50 (HL-60 [8])	Compound	inhibition of growth at 10 µM (KB [1])	inhibition of growth at 10 µM (HCT-116 [2])	inhibition of growth at 10 µM (MCF7 [3])	inhibition of growth at 10 µM (HL-60 [4])	inhibition of growth at 10 µM (PC-3)	inhibition of growth at 10 µM (SK-OV-3)	inhibition of growth at 10 µM [9]	inhibition of growth at 10 µM [10]
				COC(=O)[C@@]1(Cc2ccc(OC)cc2)CC(=O)O[C@]1(C)c1ccccc1	98%	56%	59%	68%				
				COC(=O)C1(Cc2ccccc2)CC(=O)OC1c1ccccc1 (mixture of isomers)	18%	0%	0%	22%				
				COC(=O)C1(Cc2ccc(OC)cc2)CC(=O)OC1c1ccccc1 (mixture of isomers)	19%	4%	0%	15%				
				COC(=O)c1ccc(CC2(C(=O)OC)CC(=O)OC2c2ccccc2)cc1 (mixture of isomers)	12%	0%	0%	19%				
				COC(=O)C1(Cc2cccc(C(F)(F)F)c2)CC(=O)OC1c1ccccc1 (mixture of isomers)	39%	14%	11%	34%				
				COC(=O)C1(Cc2ccc3c(c2)OCO3)CC(=O)OC1c1ccccc1 (mixture of isomers)	0%	18%	11%	18%				
				COC(=O)C1(Cc2ccc(OC)cc2)CC(=O)OC1c1ccccc1C(F)(F)F (mixture of isomers)	31%	0%	0%	23%				
				COC(=O)C1(Cc2ccc(OC)cc2)CC(=O)OC1c1ccc(C(F)(F)F)cc1 (mixture of isomers)	0%	0%	4%	2%				
				COC(=O)C1(Cc2ccc(OC)cc2)CC(=O)OC1c1ccc(F)cc1 (mixture of isomers)	33%	0%	4%	37%				
				COC(=O)C1(Cc2ccc(OC)cc2)CC(=O)OC1c1ccco1 (mixture of isomers)	32%	0%	0%	29%				
				CCCCCCC1OC(=O)CC1(Cc1ccc(OC)cc1)C(=O)OC (mixture of isomers)	13%	12%	28%	8%				
				COC(=O)C1(Cc2ccccc2)CC(=O)OC1(C)c1ccccc1 (mixture of isomers)	6%	9%	13%	22%				
590 nM	1350 nM	2760 nM	870 nM	COC(=O)C1(Cc2ccc(OC)cc2)CC(=O)OC1(C)c1ccccc1 (mixture of isomers)	95%	61%	56%	82%	68%	76%	82%	92%
				COC(=O)C1(Cc2cccc(C(F)(F)F)c2)CC(=O)OC1(C)c1ccccc1 (mixture of isomers)	21%	22%	20%	21%				
				COC(=O)C1(Cc2ccc(OC)cc2)CC(=O)OC1(C)c1cccc(C(F)(F)F)c1 (mixture of isomers)	38%	30%	46%	52%				
				CCC1(c2ccccc2)OC(=O)CC1(Cc1ccc(OC)cc1)C(=O)OC (mixture of isomers)	11%	28%	21%	30%				
				COC(=O)C1(Cc2ccc(OC)cc2)CC(=O)OC1(c1ccccc1)C(F)(F)F (mixture of isomers)	56%	20%	8%	64%				
				COC(=O)C1(Cc2ccccc2)CC(=O)OC12CCCCC2 (racemic)	7%	0%	1%	4%				
